Measured values taken from US20260276643A1, “METHODS FOR PREDICTING AND IMPROVING THERAPEUTIC EFFICACY OF CANCER TREATMENTS AND METHODS FOR CANCER PROGNOSIS” (Università degli studi di Verona, priority 2023, published 2026).
Where two headings read alike, the source gives them in different places.

How the values were obtained:
[1] = system: CLDN18 expression in DANG cells; experiment: CLDN18 exogenous regulation in vitro: CLDN18 staining of treated DANG cells; type: cell-based, human
[2] = system: CLDN18.2 expression in cancer cells; details: WO2013/174510; Tureci 2019; cited from earlier work

Compound | CLDN18.2 expression levels in cancer cells [2] | CLDN18 expression (percentage of CLDN18+ cells) [1] | also measured
Nc1ccn([C@@H]2O[C@H](CO)[C@@H](O)C2(F)F)c(=O)n1 [Gemcitabine, 4-amino-1-(2-deoxy-2,2-difluoro-β-D-erythro-pentofuranosyl)pyrimidin-2(1H)-one] | upregulate existing CLDN18.2 expression levels in cancer cells |  | CLDN18 expression (mean fluorescence intensity, fold change on untreated) ([1]; DANG cells, 48 hours treatment, FIG. 7): induced CLDN18 expression in DANG cells
NC(=O)Nc1sc(-c2ccc(F)cc2)cc1C(N)=O [TPCA-1] |  | induced CLDN18 expression in DANG cells | 
Verteporfin |  |  | CLDN18 expression (percentage of CLDN18+ cells) ([1]; DANG cells, extended experiment, FIG. 11): induced CLDN18 expression in DANG cells
O=c1[nH]cc(F)c(=O)[nH]1 [5-fluorouracil, 5-fluoro-1H-pyrimidine-2,4-dione] | upregulate existing CLDN18.2 expression levels in cancer cells |  | 
CCCCCCCCCCCCCC(=O)O[C@@H]1[C@@H](C)[C@@]2(O)[C@@H](C=C(CO)C[C@]3(O)C(=O)C(C)=C[C@@H]23)[C@@H]2C(C)(C)[C@]12OC(C)=O [PMA, Phorbol 12-myristate 13-acetate] |  | induced CLDN18 expression in DANG cells | CLDN18 expression (mean fluorescence intensity, fold change on untreated) [1]: induced CLDN18 expression in DANG cells
O=C1[O][Pt]2([NH][C@@H]3CCCC[C@H]3[NH]2)[O]C1=O [oxaliplatin, [(1R,2R)-cyclohexane-1,2-diamine](ethanedioato-O,O′)platinum(II)] | upregulate existing CLDN18.2 expression levels in cancer cells |  | 
